Reference: patent US20180148418A1, “AMIDO-SUBSTITUTED CYCLOHEXANE DERIVATIVES” (Bayer Pharma Aktiengesellschaft, priority 2015, published 2018)
pIC50: −log10 of the molar value.

Experiments:
[1] = system: wildtype Wnt signaling cascade; assay: HEK293 TOP assay (Super TopFlash luciferase reporter, Wnt-3a stimulated); type: cell-based; conditions: Homo sapiens, HEK293, 16 h, HEK293 TOP reporter cells, Wnt3a at EC50, 16 hours
Description: 7.1 Measurement of the Inhibitory Activity of Selected Compounds on the Wildtype Wnt Signaling Cascade: HEK293 TOP/FOP Assay
In order to discover and characterize small molecules which inhibit the wildtype Wnt pathway, a cellular reporter assay was employed. The corresponding assay cell was generated by transfection of the mammalian cell line HEK293 (ATCC, #CRL-1573) with the Super TopFlash vector (Morin, Science 275, 1997, 1787-1790; Molenaar et al., Cell 86 (3), 1996, 391-399). The HEK293 cell line is cultivated at 37° C. and 5% CO2 in DMEM (Life Technologies, #41965-039), supplemented with 2 mM glutamine, 20 mM HEPES, 1.4 mM pyruvate, 0.15% Na-bicarbonate and 10% foetal bovine serum (GIBCO, #10270). Stable transfectants were generated by selection with 300 μg/ml Hygromycin.
(§1) In preparation of the assay, the two cell lines were plated 24 h before beginning the test at 10000 cells per well in a 384 micro titre plate (MTP) in 30 μl growth medium. […] The recombinant human Wnt-3a was thereby applied between 2500 and 5 ng/ml in two-fold dilution steps.
(§2) Selective inhibitory activity for small molecules on the wildtype Wnt pathway was determined after parallel incubation of both (TOP and FOP) HEK293 reporter cell lines with a compound dilution series from 50 μM to 15 nM in steps of 3.16-fold dilutions in CAFTY buffer (130 mM sodium chloride, 5 mM potassium chloride, 20 mM HEPES, 1 mM magnesium chloride, 5 mM sodium bicarbonate, pH 7.4) containing 2 mM Ca^2+ and 0.01% BSA.
(§3) The compounds were thereby serially prediluted in 100% DMSO and thereafter 50 fold into the CAFTY compound dilution buffer (described above).

[2] = system: HEK293 cells cotransfected with the FOP control vector; assay: HEK293 FOP assay (control reporter with non-functional TCF elements); type: cell-based; conditions: Homo sapiens, 16 hours
Description: In a parallel approach, HEK293 cells were cotransfected with the FOP control vector and pcDNA3. The FOP vector is identical to the TOP construct, but it contains instead of functional TCF elements a randomized, non-functional sequence. For this transfection a stable transfected cell line was generated as well, based on selection with Geneticin (1 mg/ml).
as §1, §2, §3

TNKS2 = target: T1, TNKS2 (Homo sapiens, UniProt Q9H2K2); assay: TNKS2 Assay B (auto-parsylation, [3H]-NAD+ SPA); type: biochemical; conditions: 6 nM TNKS2, auto-parsylation, over night at room temperature
T1 construct: purchased BPS Bioscience, San Diego, USA 80572 (TNKS2 Histone Ribosylation Assay Kit)
T1 sequence (Q9H2K2 1-1166): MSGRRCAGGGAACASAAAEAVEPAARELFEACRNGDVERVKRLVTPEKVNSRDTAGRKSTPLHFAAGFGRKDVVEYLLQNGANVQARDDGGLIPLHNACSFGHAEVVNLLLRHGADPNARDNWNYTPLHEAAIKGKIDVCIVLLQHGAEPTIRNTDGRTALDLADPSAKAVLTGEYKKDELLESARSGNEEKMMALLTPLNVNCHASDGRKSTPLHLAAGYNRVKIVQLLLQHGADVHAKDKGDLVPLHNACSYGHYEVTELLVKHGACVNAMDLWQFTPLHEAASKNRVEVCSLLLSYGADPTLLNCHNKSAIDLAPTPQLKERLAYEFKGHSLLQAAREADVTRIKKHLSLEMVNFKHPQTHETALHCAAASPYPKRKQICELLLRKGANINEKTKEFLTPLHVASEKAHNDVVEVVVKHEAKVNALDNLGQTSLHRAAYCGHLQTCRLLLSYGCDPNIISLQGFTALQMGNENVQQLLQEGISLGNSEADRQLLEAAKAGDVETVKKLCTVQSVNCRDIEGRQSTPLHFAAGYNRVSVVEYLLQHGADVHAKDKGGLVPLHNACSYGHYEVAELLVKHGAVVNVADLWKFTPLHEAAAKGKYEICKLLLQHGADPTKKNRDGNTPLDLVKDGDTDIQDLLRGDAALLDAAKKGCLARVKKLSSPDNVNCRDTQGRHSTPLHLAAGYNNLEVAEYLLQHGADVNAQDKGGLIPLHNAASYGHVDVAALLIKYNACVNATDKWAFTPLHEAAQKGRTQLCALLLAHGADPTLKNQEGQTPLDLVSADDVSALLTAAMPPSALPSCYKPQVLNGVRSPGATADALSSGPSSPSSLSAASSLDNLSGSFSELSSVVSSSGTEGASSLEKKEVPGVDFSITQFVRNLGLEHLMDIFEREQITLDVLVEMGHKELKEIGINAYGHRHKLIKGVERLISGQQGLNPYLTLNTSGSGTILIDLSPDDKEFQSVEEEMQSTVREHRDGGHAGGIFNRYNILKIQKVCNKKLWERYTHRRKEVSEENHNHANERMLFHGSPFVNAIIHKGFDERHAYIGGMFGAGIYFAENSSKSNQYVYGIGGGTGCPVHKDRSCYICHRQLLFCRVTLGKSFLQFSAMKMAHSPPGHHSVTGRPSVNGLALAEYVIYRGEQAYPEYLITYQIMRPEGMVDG
Description: The potency of selected compounds according to the invention was assessed applying a modified in vitro inhibition assay. Here, the TNKS2 catalyzed NAD^+-dependent ribosylation of the enzyme itself (auto-parsylation) was detected using [^3H]-NAD^+ as substrate and applying the scintillation proximity assay (SPA) method to detect tritium-labeled, parsylated TNKS2. The intensity of the readout signal is proportional to the incorporated [^3H]-NAD^+. Inhibition of TNKS2 leads to a decreased incorporation of [^3H]-NAD^+ and consequently to a lower readout signal intensity. The concentration of a test compound which inhibits the enzyme activity by 50% (corresponds to half of the normed readout signal intensity) is reported as IC50.
Protocol Auto-Parsylation Assay
The assay was conducted in a 96 well MTP format with the identical TNKS2 enzyme sample and NAD^+ sample as in the histone ribosylation assay with the following modifications: TNKS2 enzyme sample was diluted with a modified assay buffer (50 mM MES pH 7.0, 1 mM DTT, 0.01% Triton X-100) to a final concentration of 6 nM TNKS2 and 10×NAD^+ solution was diluted with the modified assay buffer (s. above) to a final 0.445×NAD^+ solution doped with 100 Bq/μl [^3H]-NAD^+[Catalog #NET443H050UC, Perkin Elmer, Waltham, Mass., USA]. Substrate solution (10 μl) was incubated with different test compound concentrations (2.5 μl in 10% DMSO in modified assay buffer) or control (2.5 μl 10% DMSO in modified assay buffer only) and enzyme (10 μl) over night at room temperature. Incorporated tritium was measured after addition of 50 ul SPA beads (1 mg/ml) [Catalog #RPNQ0095 20 mg/ml, Perkin Elmer, Waltham, Mass., USA; diluted 1:10 with Dulbecco's phosphate buffered saline, PBS Catalog #D8537, Sigma-Aldrich, Steinheim, Germany] and detection of the photon emission with a beta count plate reader [Wallac MicroBeta®, Perkin Elmer, Waltham, Mass., USA].

`Cc1cc(C)n2nc(C)c(C(=O)N[C@H]3CC[C@@]4(CCN(c5ccc(F)cc5Cl)C4=O)CC3)c2n1` [Example 227, N-[(trans)-2-(2-chloro-4-fluorophenyl)-1-oxo-2-azaspiro[4.5]dec-8-yl]-2,5,7-trimethylpyrazolo[1,5-a]pyrimidine-3-carboxamide] was tested, and the pIC50 [1] was 7.06, the pIC50 [2] was ≤ 4.30 and the pIC50 (TNKS2) was 6.82.

With `O=C(N[C@H]1CC[C@@]2(CCN(c3ccc(F)cc3Cl)C2=O)CC1)c1n[nH]c2cccnc12` [Example 228, N-[(trans)-2-(2-chloro-4-fluorophenyl)-1-oxo-2-azaspiro[4.5]dec-8-yl]-1H-pyrazolo[4,3-b]pyridine-3-carboxamide] the pIC50 [1] was 7.22, the pIC50 [2] was ≤ 6.30 and the pIC50 (TNKS2) was 6.38.

For `O=C(N[C@H]1CC[C@@]2(CCN(c3ccc(F)cc3Cl)C2=O)CC1)c1cnn2ccccc12` [Example 230, N-[(trans)-2-(2-chloro-4-fluorophenyl)-1-oxo-2-azaspiro[4.5]dec-8-yl]pyrazolo[1,5-a]pyridine-3-carboxamide], the pIC50 [1] was 7.52, the pIC50 [2] was ≤ 6.30 and the pIC50 (TNKS2) was 6.55.

In the case of `O=C(N[C@H]1CC[C@@]2(CCN(c3ccc(F)cc3Cl)C2=O)CC1)c1cnn2ccc(N3CCOCC3)nc12` [Example 231, N-[(trans)-2-(2-chloro-4-fluorophenyl)-1-oxo-2-azaspiro[4.5]dec-8-yl]-5-(morpholin-4-yl)pyrazolo[1,5-a]pyrimidine-3-carboxamide], the pIC50 [1] was 8.10, the pIC50 [2] was ≤ 6.30 and the pIC50 (TNKS2) was 8.42.

For `O=C(N[C@H]1CC[C@@]2(CCN(c3ccc(F)cc3Cl)C2=O)CC1)c1cnn2ccc(O)nc12` [Example 234, N-[(trans)-2-(2-chloro-4-fluorophenyl)-1-oxo-2-azaspiro[4.5]dec-8-yl]-5-hydroxypyrazolo[1,5-a]pyrimidine-3-carboxamide], the pIC50 [1] was 6.23, the pIC50 [2] was ≤ 4.30 and the pIC50 (TNKS2) was 6.68.

For `O=C(N[C@H]1CC[C@@]2(CCN(c3ccc(F)cc3Cl)C2=O)CC1)c1cnn2c(O)ccnc12` [Example 235, N-[(trans)-2-(2-chloro-4-fluorophenyl)-1-oxo-2-azaspiro[4.5]dec-8-yl]-7-hydroxypyrazolo[1,5-a]pyrimidine-3-carboxamide], the pIC50 [1] was 6.64, the pIC50 [2] was ≤ 6.30 and the pIC50 (TNKS2) was 7.54.

In the case of `O=C(N[C@H]1CC[C@@]2(CCN(c3ccc(F)cc3Cl)C2=O)CC1)c1c[nH]c2cccnc12` [Example 236, N-[(trans)-2-(2-chloro-4-fluorophenyl)-1-oxo-2-azaspiro[4.5]dec-8-yl]-1H-pyrrolo[3,2-b]pyridine-3-carboxamide], the pIC50 [1] was 6.46, the pIC50 [2] was ≤ 4.30 and the pIC50 (TNKS2) was 7.72.

With `COCCc1cnc2c(C(=O)N[C@H]3CC[C@@]4(CCN(c5ccc(F)cc5Cl)C4=O)CC3)cnn2c1` [Example 237, N-[(trans)-2-(2-chloro-4-fluorophenyl)-1-oxo-2-azaspiro[4.5]dec-8-yl]-6-(2-methoxyethyl)pyrazolo[1,5-a]pyrimidine-3-carboxamide] the pIC50 [1] was 9.85, the pIC50 [2] was ≤ 4.30 and the pIC50 (TNKS2) was 8.05.

For `O=C(N[C@H]1CC[C@@]2(CCN(c3ccccc3)C2=O)CC1)c1cnn2cccnc12` [Example 238, N-[(trans)-1-oxo-2-phenyl-2-azaspiro[4.5]dec-8-yl]pyrazolo[1,5-a]pyrimidine-3-carboxamide], the pIC50 [1] was 7.37, the pIC50 [2] was ≤ 6.30 and the pIC50 (TNKS2) was 6.40.

`Cc1cc(C)n2ncc(C(=O)N[C@H]3CC[C@@]4(CCN(c5ccccc5)C4=O)CC3)c2n1` [Example 239, 5,7-dimethyl-N-[(trans)-1-oxo-2-phenyl-2-azaspiro[4.5]dec-8-yl]pyrazolo[1,5-a]pyrimidine-3-carboxamide] was tested, and the pIC50 [1] was 7.14, the pIC50 [2] was ≤ 6.30 and the pIC50 (TNKS2) was 6.24.

In the case of `O=C(N[C@H]1CC[C@@]2(CCN(c3ccccc3)C2=O)CC1)c1cnc2cccnn12` [Example 240, N-[(trans)-1-oxo-2-phenyl-2-azaspiro[4.5]dec-8-yl]imidazo[1,2-b]pyridazine-3-carboxamide], the pIC50 [1] was 7.54, the pIC50 [2] was ≤ 6.30 and the pIC50 (TNKS2) was 6.29.

With `COCc1cc(C)nc2c(C(=O)N[C@H]3CC[C@@]4(CCN(c5c(F)cc(F)cc5Cl)C4=O)CC3)cnn12` [Example 241, N-[(trans)-2-(2-chloro-4,6-difluorophenyl)-1-oxo-2-azaspiro[4.5]dec-8-yl]-7-(methoxymethyl)-5-methylpyrazolo[1,5-a]pyrimidine-3-carboxamide] the pIC50 [1] was 9.00, the pIC50 [2] was 5.09 and the pIC50 (TNKS2) was 7.72.

`COCc1cc(C)n2ncc(C(=O)N[C@H]3CC[C@@]4(CCN(c5c(F)cc(F)cc5Cl)C4=O)CC3)c2n1` [Example 242, N-[(trans)-2-(2-chloro-4,6-difluorophenyl)-1-oxo-2-azaspiro[4.5]dec-8-yl]-5-(methoxymethyl)-7-methylpyrazolo[1,5-a]pyrimidine-3-carboxamide] was tested, and the pIC50 [1] was 8.15, the pIC50 [2] was ≤ 4.30 and the pIC50 (TNKS2) was 7.68.

For `O=C(N[C@H]1CC[C@@]2(CCN(c3c(F)cc(F)cc3Cl)C2=O)CC1)c1cnc2cccnn12` [Example 243, N-[(trans)-2-(2-chloro-4,6-difluorophenyl)-1-oxo-2-azaspiro[4.5]dec-8-yl]imidazo[1,2-b]pyridazine-3-carboxamide], the pIC50 [1] was 8.82, the pIC50 [2] was ≤ 4.30 and the pIC50 (TNKS2) was 7.96.
